Assay results from patent US6649702B1, “Stabilization and acoustic activation of polymeric micelles for drug delivery” (University of Utah Research Foundation, priority 1999, dated 2003).
“And” between values parts separate entries of the source, which are not always exact repeats. Identical values can stand only once.

Columns and labels:
[1] = Ultrasound-triggered drug release from P-triblock P-105 micelles, real-time fluorescence detection; assay type: physicochemical; settings: for Drug release: 10% P-triblock P-105 micelles, 37° C.; for Drug release (mean and s.d.): 10% P-triblock
Source text: A custom ultrasonic exposure chamber with real-time fluorescence detection was used to measure acoustically-triggered drug release from P-triblock PLURONIC P-105 micelles under continuous wave (CW) or pulsed ultrasound in the frequency range of 20 kHz to 90 kHz. The measurements were based on the decrease in fluorescence intensity when drug was transferred from the micelle core to the aqueous environment. Two fluorescent drugs were used: doxorubicin (DOX) and its paramagnetic analogue, ruboxyl (Rb). P-triblock PLURONIC P-105 at various concentrations in aqueous solutions was used as a micelle-forming polymer. Drug release was highest at 20 kHz ultrasound and dropped with increasing ultrasonic frequency despite much higher power densities. […] The release of DOX was higher than that of Rb due to stronger interaction and deeper insertion of Rb into the core of the micelles. Drug release was higher at lower P-triblock concentrations, which presumably results from higher local drug concentrations in the core of P-triblock micelles when the number of micelles is low. At constant frequency, drug release increased with increasing power density. At constant power density and for pulse duration longer than 0.1 s, peak release under pulsed ultrasound was the same as stationary release under CW ultrasound.
Fluorescence of the drug was excited at an excitation wavelength of 488 nm with an optical power of approximately 0.5 mW in a 2 mm diameter beam. At this light intensity no photobleaching was observed, based on the constant level of drug fluorescence during continuing irradiation for 8 hours. The drug release was quantified by measuring the changes in fluorescence emissions before, during, and after the ultrasound exposure. A fiberoptic probe (a sheathed bundle of multimode glass fibers, 3 mm entrance diameter, 0.6 numerical aperture, and 90 cm in length) was used to collect the fluorescence emission. The light passed through a dielectric bandpass filter with a 35 nm bandwidth centered at 535 nm (Omega Optical Model 535DF35) to a sensitive silicon detector (EG&G Model 450-1). The filter effectively cuts off emissions below 500 nm, including any Rayleigh-scattered laser light. The detector signal was digitized using a 12-bit AID converter (National Instruments) and sent, along with the digitized monitor photodetector signal, to a Macintosh computer for storage and processing. The analog outputs of both photodetectors were also plotted on a stripchart recorder. The temperature of the ultrasonic exposure chamber was maintained at 37° C. by circulating thermostated water throughout the sonicating bath.
The experimental procedure is described below. First, fluorescence intensity of drug in phosphate buffered saline, PBS (FPBS) was measured; then, without any changes in the experimental setup, the PBS solution was carefully removed and replaced with the drug solution in P-triblock micelles. […] The base fluorescence of the micellar solution (Fmic) was measured, after which CW or pulsed ultrasound was turned on. During the “ultrasound on” phase, fluorescence dropped as shown in FIG. 19 due to drug release from the hydrophobic core of micelles into the aqueous environment.
Digitized data were analyzed, to calculate the percentage of drug release from micelles. To reduce the noise, the data were Fourier transformed, and a small magnitude narrow band noise of unknown origin and its next three harmonics were filtered out. After Fourier filtering, the data were smoothed using a 10 point moving average. An example of the raw and filtered data is presented in FIG. 19 for DOX release from 10% P-triblock micelles.
The percent of drug release was calculated assuming that Fmic-FPBS corresponds to 100% drug release:
Release (%)=[(Fmic−Fus)/(Fmic−FPBS)]×100% (1)
where Fus is fluorescence during exposure to ultrasound. […]

[2] = Rb localization in P-triblock micelles and P-gel nanoparticles (EPR and fluorescence); assay type: physicochemical
Experimental: A dry powder of the EPR probe (16-DS) was incubated with unstabilized or stabilized micellar solutions of P-triblock for 15 mm under constant shaking. Unsolubilized probe was removed by centrifugation. The concentration of a solubilized probe was measured by the EPR. The same technique of probe introduction was used for pyrene. Water solubility of 16-DS or pyrene is very low and can be neglected. Dissolved probes are associated with P-triblock molecules and thus reflect the loading capacity, dynamics and environment of the latter. For a fluorescent drug, Rb, the same concentration of Rb (20 μg/ml) was introduced into non-stabilized and stabilized micellar P-triblock solutions at 37° C. from a stock solution. Because fluorescence of Rb within P-triblock micelles is much higher than outside micelles, the fraction of the drug within micelles can be estimated as
where Fmes is a measured fluorescence intensity, Fm is Rb fluorescence intensity when all the drug is localized in the hydrophobic core of micelles (measured in a 20% P-triblock solution at 37° C.), Fs is fluorescence intensity in non-micellar solutions (i.e., in PBS), and am is the fraction of the drug located in the hydrophobic core of micelles.
Rb was used as a spin- and fluorescent probe to monitor drug distribution in P-triblock micelles and P-gel nanoparticles.
The anthraquinone part of Rb molecule is inherently fluorescent. Rb fluorescence is quenched in collisions with water molecules; when Rb molecules are screened from collisions with water, theft fluorescence increases manifold.

[3] = tested on: blood proteins (albumin, fibrinogen); settings: reported elsewhere [82]; cited from earlier work

| Drug release ([1]; 20 kHz, 0.033 W/cm^2) [%] | Drug release ([1]; 20 kHz, 0.047 W/cm^2) [%] | Drug release ([1]; 20 kHz, 0.058 W/cm^2) [%] | Drug release ([1]; 67 kHz, 0.15 W/cm^2) [%] | Drug release ([1]; 67 kHz, CW, 1.35 W/cm^2) [%] | Drug release ([1]; 67 kHz, CW, 1.66 W/cm^2) [%] | Drug release ([1]; 67 kHz, CW, 2.8 W/cm^2) | Drug release (mean and s.d.) ([1]; drug concentration 30 μg/ml, 67 kHz, 2.8 W/cm^2) | Drug release (mean and s.d.) ([1]; drug concentration 40 μg/ml, 67 kHz, 2.8 W/cm^2) | Drug Release from P-triblock Micelles ([1]; 20 kHz, 0.021 W/cm^2) | Drug Release from P-triblock Micelles ([1]; 90 kHz, 1.66 W/cm^2) | overall fraction of the drug in the cores of P-gel nanoparticle ([2]; EPR, P-gel heated to 37° C.) [%] | fraction of rotationally restricted molecules ([2]; EPR, room temperature, 10% P-triblock solution without a hydrogel) [%] | fraction of rotationally restricted molecules ([2]; EPR, room temperature, 10% P-triblock/1% poly(NiPAAm) P-gel nanoparticles) [%] | fraction of Rb molecules localized in the hydrophobic environment of micelle cores ([2]; fluorescence, room temperature, 10% P-triblock solutions) | Compound | adsorption or binding to blood proteins (albumin, fibrinogen) [3] |
| --- | --- | --- | --- | --- | --- | --- | --- | --- | --- | --- | --- | --- | --- | --- | --- | --- |
| 4.6 ± 0.5 | 6.5 ± 1.1 | 9.2 ± 0.56 | 0 | 5.4 ± 2.3 | 8.1 ± 2.1 | 10.7 ± 0.8% | 5.5%±1% | 10%±1% |  |  |  |  |  |  | COc1cccc2c1C(=O)c1c(O)c3c(c(O)c1C2=O)C[C@@](O)(C(=O)CO)C[C@@H]3O[C@H]1C[C@H](N)[C@H](O)[C@H](C)O1 [DOX, doxorubicin] |  |
|  |  |  |  | 0.8 ± 0.25 | 3.2 ± 0.9 | 5.5% and 5.5 ± 1.5% |  |  | Traces | traces | 73 | 71 | 78 | about 70% | COc1cccc2c1C(=O)c1c(O)c3c(c(O)c1C2=O)C[C@@](O)(/C(C)=N/N=C1CC(C)(C)N(O)C(C)(C)C1)C[C@@H]3O[C@H]1C[C@H](N)[C@H](O)[C@H](C)O1.Cl [Rb, Ruboxyl] | negligible |
